Assay results as given in patent US20110020269A1, “METHODS AND COMPOSITIONS FOR MODIFYING T CELL IMMUNE RESPONSES AND INFLAMMATION” (Beth Israel Deaconess Medical Center, Inc., priority 2007, published 2011).

Assays:
[1] = test system: new onset T1DM NOD mice; assay: Restoration of euglycemia in new onset diabetic NOD mice; format: in vivo, mouse; conditions: NOD-sp hosts; treatment 28 days
Procedure: We tested the efficacy of a 14- or 28-day course of Power Mix (RPM+IL-2/Fc+mIL-15/Fc) in new onset (>10 days) T1DM NOD mice whose repeated blood glucose levels ranged from 300 to 450 mg/dl. All non-treated diabetic NOD mice remained hyperglycemic without spontaneous remissions (Table 1, group A) and most died within 7 weeks despite insulin treatment (data not shown). In contrast, euglycemia was achieved within 5-7 weeks and maintained throughout a follow up period of over 300 days in 55 of 60 diabetic NOD mice treated with the RPM+IL-2/Fc+mIL-15/Fc regimen (Table 1 groups B and C). By comparison, remissions were less frequent (Table 1, Groups D-F) and delayed if elements of the treatment mix were eliminated.
To determine whether the presence of the T cell regulatory-enriched CD25+ T cell population is crucial to the beneficial therapeutic effects of Power Mix, prior to administration, we treated new onset diabetic NOD mice with an anti-CD25 mAb regimen known to delete CD4+CD25+ T cells (Zheng et al., Adv. Exp. Med. Biol., 520:87-95, 2003; Sanchez-Fueyo et al., Nat. Immunol., 4:1093-1101, 2003). Seven days after the initiation of anti-CD25 mAb treatment, these CD25+ T cell depleted mice received regimen treatment for 28 days (Table 1, Group G). […]
Blood glucose levels of NOD mice were monitored twice weekly with the Accu-Check blood glucose monitor system (Roche, Indianapolis, Ind.). […]

[2] = subcutaneous injection of 25 mg twice a week; cited from earlier work

Row | Molecule | Restored to Normoglycemia (#/total treated) [1] | Time to peak blood levels (average) [2] [h]
1 | CO[C@H]1C[C@@H]2CC[C@@H](C)[C@@](O)(O2)C(=O)C(=O)N2CCCC[C@H]2C(=O)O[C@H]([C@H](C)C[C@@H]2CC[C@@H](O)[C@H](OC)C2)CC(=O)[C@H](C)/C=C(\C)[C@@H](O)[C@@H](OC)C(=O)[C@H](C)C[C@H](C)/C=C/C=C/C=C/1C [RPM, rapamycin] | 5/19 | 
2 | Etanercept |  | 72
